According to ChEMBL document CHEMBL1208713, “Coumarins incorporating hydroxy- and chloro-moieties selectively inhibit the transmembrane, tumor-associated carbonic anhydrase isoforms IX and XII over the cytosolic ones I and II” (Bioorg Med Chem Lett, 2010):

Columns and labels:
[1] = target: Carbonic anhydrase 2 (Homo sapiens) (UniProt P00918)
Description: Inhibition of human CA2 by CO2 hydration assay

[2] = target: Carbonic anhydrase 12 (Homo sapiens) (UniProt O43570)
Description: Inhibition of human CA12 by CO2 hydration assay

[3] = target: Carbonic anhydrase 9 (Homo sapiens) (UniProt Q16790); assay: Inhibition of human CA9 by CO2 hydration assay
[4] = target: Carbonic anhydrase 1 (Homo sapiens) (UniProt P00915)
Chain of Carbonic anhydrase 1 (Homo sapiens) (P00915 2-261 limits assumed): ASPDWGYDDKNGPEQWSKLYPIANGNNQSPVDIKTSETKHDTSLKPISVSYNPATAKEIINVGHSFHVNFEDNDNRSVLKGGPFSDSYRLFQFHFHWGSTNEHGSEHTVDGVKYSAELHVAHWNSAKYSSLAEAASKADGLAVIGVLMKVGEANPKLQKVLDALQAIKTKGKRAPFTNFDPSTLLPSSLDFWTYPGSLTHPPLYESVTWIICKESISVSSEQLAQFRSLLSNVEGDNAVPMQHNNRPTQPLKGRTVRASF
Description: Inhibition of human CA1 by CO2 hydration assay

Chain of Carbonic anhydrase 12 (Homo sapiens) (O43570 whole entry): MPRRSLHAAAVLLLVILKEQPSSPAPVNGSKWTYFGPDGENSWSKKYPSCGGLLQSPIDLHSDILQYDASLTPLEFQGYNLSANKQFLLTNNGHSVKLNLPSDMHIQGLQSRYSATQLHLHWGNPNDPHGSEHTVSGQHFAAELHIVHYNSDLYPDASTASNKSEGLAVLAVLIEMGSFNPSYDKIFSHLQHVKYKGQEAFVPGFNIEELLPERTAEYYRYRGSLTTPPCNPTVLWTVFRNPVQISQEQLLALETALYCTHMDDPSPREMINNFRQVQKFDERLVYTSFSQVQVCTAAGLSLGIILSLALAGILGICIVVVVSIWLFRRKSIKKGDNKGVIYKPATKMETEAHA

Row | Structure (SMILES) | Ki [1] | Ki [2] | Ki [3] | Ki [4]
1 | O=c1cc(CCl)c2ccc(Cl)cc2o1 | > 100 µM | 0.735 µM | 0.359 µM | 72.8 µM
2 | O=c1cc(O)c2ccccc2o1 | > 100 µM | 6.3 µM | 0.418 µM | 95 µM
3 | O=c1cc(CCl)c2ccc(O)cc2o1 | > 100 µM | 8.02 µM | 0.478 µM | > 100 µM
4 | O=c1cc(Cl)c2ccccc2o1 | > 100 µM | 7.03 µM | 4.92 µM | 86.9 µM
5 | O=c1oc2ccccc2cc1O | > 100 µM | 9.6 µM | 0.508 µM | 79.4 µM

Second part, the molecule after the results:

Row | Ki [1] | Ki [2] | Ki [3] | Ki [4] | Structure (SMILES)
6 | – | > 100 µM | > 100 µM | – | O=c1ccc2ccccc2o1
7 | – | – | 0.482 µM | 58.4 µM | O=c1ccc2ccc(O)cc2o1
8 | > 100 µM | 0.683 µM | 0.198 µM | > 100 µM | O=c1ccc2cc(O)ccc2o1
